Measurements from patent US20090203775A1, “Novel compound and a novel microorganism for producing the novel compound” (Haiyi Biotech Pte, Ltd., priority 2005, published 2009).

Columns and labels:
[1] = tested on: A2780 (human ovary cancer cells); assay: MTT assay, percentage of killing, A2780; format: cell-based; settings: 24~48 hours
Protocol: (§1) 1. Method: 3-[4,5-dimethyl(thiazol-2-yl)-3,5-diphery] tetradium bromide (MTT) assay. 2. Culture medium: RPMI-1640 medium containing 2% calf serum 3. Apparatus: (1) CO2 incubator, Sherton USA; (2) 318MC Enzyme analysis machine, SANCO Equipments Company Ltd. 4. Conditions of the culture: Temp. 37° C.; Concentration of CO2: 4.7%, culture duration: 24˜48 hours.

[2] = tested on: MGC (human stomach cancer cells); assay: MTT assay, percentage of killing, MGC; format: cell-based; settings: 24~48 hours
Protocol: as §1

[3] = tested on: L1210, a kind of lymph leukemia cell; assay: Ex vivo treatment of L1210 cells, then i.p. injection into mice; format: in vivo, BDF-1 mice
Protocol: Control: 6 BDF-1 mice, male, administer to each mouse 1×10^8 L1210, a kind of lymph leukemia cell, by intraperitoneal (i.p.) injection, (without the compound of formula (I) treatment); results are shown in FIG. 11.
Ex vivo test group: 6 BDF-1 mice, male, administer to each mouse 1×10^8 L1210 cells by i.p. injection, wherein the L1210 were treated with the compound of formula (I). The method of treating cells ex vivo: The concentration of the lyophilized powder injection of the compound of formula (I) is 7.5 mg/ml. It was diluted to 150 ug/ml with saline solution. A volume of 67 ul of the diluted injection solution is mixed with 1.5 ml L1210 cells and 0.433 ml saline to obtain in each […] of L1210 cells to contain 5 ug the compound. The mixture is placed at the room temperature for two hours.

T. rubrum = assay: Germicidal effect, MTT assay, T. rubrum; format: cell-based
Protocol: (§2) Aims: To observe the germicidal effect of the compound of formula (I) on T. rubrum, T. mentagrophytes, C. albicans and B. subtilis. Method: […] Concentration of the samples were: (1) 2 mg/ml; (2) 1 mg/ml; (3) 0.5 mg/ml; (4) 0.25 mg/ml; Volume of the sample: 50 ul/well.

T. mentagrophytes = assay: Germicidal effect, MTT assay, T. mentagrophytes; format: cell-based
Protocol: as §2

B. subtilis = assay: Germicidal effect, MTT assay, B. subtilis; format: cell-based
Protocol: as §2

[4] = tested on: T. rubrum, T. mentagrophytes, C. albicans and B. subtilis; assay: Germicidal effect, MTT assay, summary statement for all strains; format: cell-based; settings: ≧50 μg/well; summary for the strains of Table 8
Protocol: as §2

## O=C1CC[C@H](c2ccc(O)c3c2C(=O)C2OC2[C@H]3O)c2cccc(O)c21 (some centres unmarked) [compound of formula (I)]
[1]; A2780, 312.5 ng/ml
  percentage of killing: 0%
[1]; A2780, 625 ng/ml
  percentage of killing: 35.31%
[1]; A2780, 1.25 ug/ml
  percentage of killing: 46.5%
[1]; A2780, 2.5 ug/ml
  percentage of killing: 73.08%
[1]; A2780, 5 ug/ml
  percentage of killing: 90.91%
[2]; 312.5 ng/ml
  percentage of killing: 0%
[2]; 625 ng/ml
  percentage of killing: 40.98%
[2]; 1.25 ug/ml
  percentage of killing: 42.32%
[2]; 2.5 ug/ml
  percentage of killing: 64.37%
[2]; 5 ug/ml
  percentage of killing: 85.52%
[3]; 6 BDF-1 mice given 1×10^8 L1210 cells i.p., cells treated ex vivo with 5 ug compound, two hours, room temperature, controls died at 12-15 days
  duration of survival: after 60 days
[3]; 6 BDF-1 mice given compound-treated L1210 cells i.p.
  others (symptoms): no symptom
[3]; L1210 treated ex vivo with 5 ug compound, two hours, room temperature
  killing of L1210 ex vivo (in words): killed completely
T. rubrum; 12.5 μg/ml
  Gemicidal effect (killing rate): 58%
T. rubrum; 25 μg/ml
  Gemicidal effect (killing rate): 80%
T. rubrum; 50 μg/ml
  Gemicidal effect (killing rate): 99%
T. rubrum; 100 μg/ml
  Gemicidal effect (killing rate): 100%
T. mentagrophytes; 12.5 μg/ml
  Gemicidal effect (killing rate): 60%
T. mentagrophytes; 25 μg/ml
  Gemicidal effect (killing rate): 82%
T. mentagrophytes; 50 μg/ml
  Gemicidal effect (killing rate): 99.5%
T. mentagrophytes; 100 μg/ml
  Gemicidal effect (killing rate): 100%
B. subtilis; 12.5 μg/ml
  Gemicidal effect (killing rate): 65%
B. subtilis; 25 μg/ml
  Gemicidal effect (killing rate): 85%
B. subtilis; 50 μg/ml
  Gemicidal effect (killing rate): 99%
B. subtilis; 100 μg/ml
  Gemicidal effect (killing rate): 100%
[4]
  antifungal effects: 99.9%
